One test addresses Haspin (Homo sapiens, UniProt Q8TF76). Nature of the test: recombinant kinase panel (IMAP or mobility shift assay), percent inhibition at […] TG693. The format is biochemical. The conditions noted are these: read-out: % inhibition at 1 μM.
Another test concerns the target T1, AMPKα2/β1/γ1 (Homo sapiens, UniProt P54646).
T1 construct: gene PRKAA2
Description: biochemical. The method in brief: (§1)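 Reactions at room temperature in HEPES buffer (20 mM, pH 7.5, 0.01% Triton X-100, 2 mM DTT) lasted 1 or 5 h depending on kinase, with substrate peptide and ATP-metal. Phosphorylation read by electrophoretic mobility shift or IMAP polarization; kinase activity computed as P/(P + S).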

The target of a further test is LATS2 (Homo sapiens, UniProt Q9NRM7). Nature of the test: biochemical. In a few lines: as §1
Another test concerns the target T2, PDHK4 (Homo sapiens, UniProt Q16654).
T2 construct: gene PDK4
Nature of the test: biochemical. In a few lines: as §1

The target in another test is T3, RSK3 (Homo sapiens, UniProt Q15349).
T3 construct: gene RPS6KA2
Description: biochemical. In a few lines: as §1

For a further test, the target named is TEC (Homo sapiens, UniProt P42680). Nature of the test: biochemical. In a few lines:
as §1

For the next test, the target named is TNK1 (Homo sapiens, UniProt Q13470). Description: biochemical. In a few lines:
as §1

Test [1] addresses T4, CDC2-like kinase 1 (CLK1) (Homo sapiens, UniProt P49759). Nature of the test: biochemical.
For test [2], the target named is T4, CDC2-like kinase 1 (CLK1). Details: recombinant GST-tagged human CLK1. The conditions noted are these: 1 µM; inhibitor.
Description: These assays rely on the phosphorylation of small synthetic peptides developed for each kinase, and detect activity by changes in electrophoretic mobility (MSA assay) or by binding of a fluorescently labelled peptide to a large micro-particle and concomitant polarization increases (IMAP assay). […] Inhibitor (4×), substrate/ATP-Metal (4×), and kinase (2×) solutions were prepared with assay buffer (20 mM HEPES, 0.01% Triton X-100, 2 mM DTT, pH 7.5) and mixed in 384-well plates at room temperature for 1 or 5 h depending on the kinase. Reactions were stopped by the addition of termination buffer (QuickScout Screening Assist MSA; Carna Biosciences). The entire reaction mixture was then applied to a LabChip system (Perkin-Elmer, Waltham, MA, USA) and the product and substrate peptide peaks were separated and quantified, and then heights of product (P) and substrate (S) peptide peaks were calculated. The level of kinase activity was evaluated with the following equation: activity = P/(P + S).

Data on one compound can be found in PMC5448077, “Development of an orally available inhibitor of CLK1 for skipping a mutated dystrophin exon in Duchenne muscular dystrophy” (Scientific Reports, 2017).

T4 sequence (P49759 whole entry): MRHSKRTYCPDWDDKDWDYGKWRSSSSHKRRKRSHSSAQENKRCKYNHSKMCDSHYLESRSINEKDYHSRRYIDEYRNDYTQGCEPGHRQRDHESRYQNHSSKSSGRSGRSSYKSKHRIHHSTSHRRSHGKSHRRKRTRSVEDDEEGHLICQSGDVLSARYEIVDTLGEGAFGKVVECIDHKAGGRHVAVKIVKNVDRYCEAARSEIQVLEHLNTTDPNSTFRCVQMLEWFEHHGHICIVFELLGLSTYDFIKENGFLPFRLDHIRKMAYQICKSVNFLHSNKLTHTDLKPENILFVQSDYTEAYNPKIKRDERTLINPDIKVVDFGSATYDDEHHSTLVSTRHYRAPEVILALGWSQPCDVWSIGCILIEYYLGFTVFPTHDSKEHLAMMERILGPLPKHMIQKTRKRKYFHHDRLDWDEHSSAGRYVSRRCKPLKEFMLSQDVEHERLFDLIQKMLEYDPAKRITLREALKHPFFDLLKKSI
T1 sequence (P54646 whole entry): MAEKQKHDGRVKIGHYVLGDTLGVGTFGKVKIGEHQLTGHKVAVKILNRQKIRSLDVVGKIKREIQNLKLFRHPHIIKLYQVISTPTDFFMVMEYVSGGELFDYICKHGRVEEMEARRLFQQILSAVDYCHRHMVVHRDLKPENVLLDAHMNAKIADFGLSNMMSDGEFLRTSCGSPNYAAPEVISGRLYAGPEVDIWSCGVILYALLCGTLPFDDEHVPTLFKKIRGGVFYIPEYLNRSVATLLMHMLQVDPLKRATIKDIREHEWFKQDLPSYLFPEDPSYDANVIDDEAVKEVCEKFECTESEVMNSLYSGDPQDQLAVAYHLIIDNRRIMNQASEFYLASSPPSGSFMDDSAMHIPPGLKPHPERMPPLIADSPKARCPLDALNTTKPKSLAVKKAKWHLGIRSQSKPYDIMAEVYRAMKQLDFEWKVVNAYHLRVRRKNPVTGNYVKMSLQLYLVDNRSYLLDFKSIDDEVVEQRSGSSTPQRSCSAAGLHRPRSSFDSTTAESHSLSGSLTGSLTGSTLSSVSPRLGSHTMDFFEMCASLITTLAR
T1 sequence (P54619 whole entry partner): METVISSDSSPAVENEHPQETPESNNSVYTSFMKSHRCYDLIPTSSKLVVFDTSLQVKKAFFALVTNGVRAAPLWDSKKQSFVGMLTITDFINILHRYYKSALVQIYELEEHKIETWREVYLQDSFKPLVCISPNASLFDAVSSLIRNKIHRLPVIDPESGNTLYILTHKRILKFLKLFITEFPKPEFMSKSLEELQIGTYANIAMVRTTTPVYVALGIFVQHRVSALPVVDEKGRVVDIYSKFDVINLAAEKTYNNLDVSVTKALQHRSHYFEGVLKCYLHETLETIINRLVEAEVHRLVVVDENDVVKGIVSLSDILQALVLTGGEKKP
T1 sequence (Q9Y478 whole entry partner): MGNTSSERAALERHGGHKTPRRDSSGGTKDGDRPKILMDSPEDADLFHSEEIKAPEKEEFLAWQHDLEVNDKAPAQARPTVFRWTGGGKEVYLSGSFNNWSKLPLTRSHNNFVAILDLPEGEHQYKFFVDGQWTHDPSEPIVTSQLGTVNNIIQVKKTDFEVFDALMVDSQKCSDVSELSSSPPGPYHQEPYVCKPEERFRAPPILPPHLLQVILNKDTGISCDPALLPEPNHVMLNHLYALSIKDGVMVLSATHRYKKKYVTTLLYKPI
T3 sequence (Q15349 whole entry): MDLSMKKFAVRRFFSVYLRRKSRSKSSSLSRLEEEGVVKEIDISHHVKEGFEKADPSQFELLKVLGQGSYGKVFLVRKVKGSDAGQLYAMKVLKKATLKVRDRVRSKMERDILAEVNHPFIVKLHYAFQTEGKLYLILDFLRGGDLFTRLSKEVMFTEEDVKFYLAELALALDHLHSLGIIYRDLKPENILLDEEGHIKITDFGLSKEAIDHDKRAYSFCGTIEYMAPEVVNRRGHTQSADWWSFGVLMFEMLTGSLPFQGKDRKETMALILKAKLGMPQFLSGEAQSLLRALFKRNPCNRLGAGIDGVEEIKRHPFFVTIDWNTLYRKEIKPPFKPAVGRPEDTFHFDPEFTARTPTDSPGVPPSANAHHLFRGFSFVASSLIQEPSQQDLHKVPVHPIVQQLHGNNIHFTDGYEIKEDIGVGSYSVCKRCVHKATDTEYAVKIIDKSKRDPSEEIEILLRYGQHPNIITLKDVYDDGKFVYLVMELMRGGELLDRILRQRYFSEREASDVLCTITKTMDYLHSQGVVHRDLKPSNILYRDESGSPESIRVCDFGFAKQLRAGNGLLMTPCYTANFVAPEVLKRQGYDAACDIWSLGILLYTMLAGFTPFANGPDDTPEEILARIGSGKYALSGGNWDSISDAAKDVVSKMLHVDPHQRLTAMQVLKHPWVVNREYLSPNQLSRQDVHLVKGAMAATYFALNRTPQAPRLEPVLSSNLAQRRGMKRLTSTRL
Sequence of TEC (P42680 whole entry): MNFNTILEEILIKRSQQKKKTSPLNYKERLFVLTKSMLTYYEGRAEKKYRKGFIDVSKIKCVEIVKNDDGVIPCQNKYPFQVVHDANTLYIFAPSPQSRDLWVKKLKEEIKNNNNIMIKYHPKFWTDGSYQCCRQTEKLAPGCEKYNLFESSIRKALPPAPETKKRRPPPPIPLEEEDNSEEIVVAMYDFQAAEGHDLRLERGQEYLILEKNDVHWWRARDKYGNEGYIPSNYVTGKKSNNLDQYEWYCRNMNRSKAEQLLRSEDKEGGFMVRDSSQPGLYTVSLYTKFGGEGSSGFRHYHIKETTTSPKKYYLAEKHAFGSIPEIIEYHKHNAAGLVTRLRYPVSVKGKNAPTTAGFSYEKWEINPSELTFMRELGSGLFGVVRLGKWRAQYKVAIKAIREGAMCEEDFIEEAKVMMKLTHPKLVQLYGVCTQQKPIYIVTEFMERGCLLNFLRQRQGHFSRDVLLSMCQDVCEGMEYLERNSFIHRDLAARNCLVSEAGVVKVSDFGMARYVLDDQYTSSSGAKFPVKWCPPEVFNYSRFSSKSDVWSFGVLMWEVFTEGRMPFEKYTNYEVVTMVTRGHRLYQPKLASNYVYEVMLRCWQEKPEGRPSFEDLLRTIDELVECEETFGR
Sequence of TNK1 (Q13470 whole entry): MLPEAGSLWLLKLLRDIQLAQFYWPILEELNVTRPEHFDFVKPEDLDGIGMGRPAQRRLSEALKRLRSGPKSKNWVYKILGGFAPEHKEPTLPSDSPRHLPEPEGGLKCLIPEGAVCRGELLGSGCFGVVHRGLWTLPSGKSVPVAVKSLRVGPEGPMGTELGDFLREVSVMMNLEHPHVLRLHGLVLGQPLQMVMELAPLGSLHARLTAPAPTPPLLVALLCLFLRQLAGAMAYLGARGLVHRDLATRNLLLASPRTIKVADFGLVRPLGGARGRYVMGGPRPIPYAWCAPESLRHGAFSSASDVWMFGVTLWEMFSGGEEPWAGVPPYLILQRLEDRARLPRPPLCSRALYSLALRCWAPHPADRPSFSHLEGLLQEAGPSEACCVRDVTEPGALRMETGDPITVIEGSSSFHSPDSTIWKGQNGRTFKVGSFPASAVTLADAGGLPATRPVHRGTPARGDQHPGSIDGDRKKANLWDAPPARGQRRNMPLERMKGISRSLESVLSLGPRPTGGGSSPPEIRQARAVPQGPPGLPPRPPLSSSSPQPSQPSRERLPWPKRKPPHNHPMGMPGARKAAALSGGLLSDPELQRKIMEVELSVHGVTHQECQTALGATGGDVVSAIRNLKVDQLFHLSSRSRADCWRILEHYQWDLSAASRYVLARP
Sequence of Haspin (Q8TF76 whole entry): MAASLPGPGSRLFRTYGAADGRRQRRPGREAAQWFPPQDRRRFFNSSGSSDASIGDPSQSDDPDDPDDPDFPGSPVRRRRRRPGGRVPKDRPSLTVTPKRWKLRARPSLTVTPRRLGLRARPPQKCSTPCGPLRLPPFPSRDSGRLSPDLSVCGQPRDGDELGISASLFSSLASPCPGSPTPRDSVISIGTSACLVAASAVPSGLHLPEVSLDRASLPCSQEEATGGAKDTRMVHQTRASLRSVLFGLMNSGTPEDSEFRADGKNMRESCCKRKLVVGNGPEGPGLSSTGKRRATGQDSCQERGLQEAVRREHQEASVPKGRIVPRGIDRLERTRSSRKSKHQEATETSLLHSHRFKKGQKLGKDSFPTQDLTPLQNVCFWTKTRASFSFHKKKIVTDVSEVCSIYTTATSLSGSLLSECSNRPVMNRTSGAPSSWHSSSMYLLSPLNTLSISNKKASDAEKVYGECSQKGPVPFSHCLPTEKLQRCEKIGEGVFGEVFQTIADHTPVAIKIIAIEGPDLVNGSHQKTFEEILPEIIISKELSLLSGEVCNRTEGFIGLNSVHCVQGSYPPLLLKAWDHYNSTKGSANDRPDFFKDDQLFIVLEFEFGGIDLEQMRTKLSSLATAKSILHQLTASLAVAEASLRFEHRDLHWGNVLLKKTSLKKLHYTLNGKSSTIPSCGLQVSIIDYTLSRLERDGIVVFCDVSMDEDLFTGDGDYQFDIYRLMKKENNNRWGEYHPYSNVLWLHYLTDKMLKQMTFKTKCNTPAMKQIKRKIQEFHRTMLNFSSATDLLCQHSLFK
T2 sequence (Q16654 whole entry): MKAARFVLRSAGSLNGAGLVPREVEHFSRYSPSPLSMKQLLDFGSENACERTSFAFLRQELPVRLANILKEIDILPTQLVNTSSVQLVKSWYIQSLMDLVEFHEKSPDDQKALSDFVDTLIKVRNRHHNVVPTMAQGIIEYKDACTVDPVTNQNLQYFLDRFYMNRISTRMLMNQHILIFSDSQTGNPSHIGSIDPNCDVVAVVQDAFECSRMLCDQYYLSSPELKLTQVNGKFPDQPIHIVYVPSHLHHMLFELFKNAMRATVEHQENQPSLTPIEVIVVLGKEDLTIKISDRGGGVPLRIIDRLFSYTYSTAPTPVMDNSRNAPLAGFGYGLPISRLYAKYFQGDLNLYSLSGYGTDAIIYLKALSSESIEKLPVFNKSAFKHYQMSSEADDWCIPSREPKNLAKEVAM

What is called inhibition is the drop in the measured response relative to a control, in per cent. As usually defined, the Ki is the dissociation constant of the complex between target and ligand, obtained from inhibition or displacement. Broadly, the %Inhibition is the drop in the measured response relative to a control, in per cent. In the case of `c1cc(-c2ccc3[nH]ncc3c2)ccn1` [TG693, 5-(4-pyridinyl)-1H-indazole], the inhibition at 1 µM on Haspin is above 90%; against AMPKα2/β1/γ1, 1.7%; against LATS2, -3.8%; on PDHK4 it was 3.1%; against RSK3, -4.8%; against TEC it was -0.4%. For the same compound, the inhibition at 1 µM against TNK1 was 3.8%. Besides, the Ki in test [1] stood at 105 nM. For the same compound, the “%Inhibition” value in test [2] turned out to be 92.6%.
